Numbers after ± are expanded uncertainties.
Experiment: Boiling temperature at pressure P
Conditions: Liquid, Ebulliometric method (Recirculating still)

Compound	Boiling temperature at pressure P (24.5 kPa)	Boiling temperature at pressure P (34 kPa)	Boiling temperature at pressure P (43.5 kPa)	Boiling temperature at pressure P (53 kPa)	Boiling temperature at pressure P (62.5 kPa)	Boiling temperature at pressure P (72 kPa)	Boiling temperature at pressure P (81.5 kPa)	Boiling temperature at pressure P (91 kPa)	Boiling temperature at pressure P (101.3 kPa)	Boiling temperature at pressure P (110 kPa)	Boiling temperature at pressure P (119.5 kPa)	Boiling temperature at pressure P (129 kPa)	Boiling temperature at pressure P (138.5 kPa)	Boiling temperature at pressure P (148 kPa)	Boiling temperature at pressure P (157.5 kPa)	Boiling temperature at pressure P (167 kPa)	Boiling temperature at pressure P (176.5 kPa)	Boiling temperature at pressure P (186 kPa)	Boiling temperature at pressure P (190 kPa)
CCC/C=C/C=O [(E)-2-hexenal]	100.4 ± 0.3 °C	110 ± 0.3 °C	117.2 ± 0.3 °C	123.8 ± 0.3 °C	129.5 ± 0.3 °C	134.6 ± 0.3 °C	139 ± 0.3 °C	143.0 ± 0.4 °C	147.6 ± 0.4 °C	150.7 ± 0.4 °C	154.0 ± 0.4 °C	157.2 ± 0.4 °C	160.0 ± 0.4 °C	162.8 ± 0.4 °C	165.2 ± 0.4 °C	168 ± 0.4 °C	170.2 ± 0.4 °C	172.2 ± 0.4 °C	173.1 ± 0.4 °C
CCCCCC=O [hexanal]	85.0 ± 0.3 °C	94.2 ± 0.3 °C	101.1 ± 0.3 °C	107 ± 0.3 °C	112.2 ± 0.3 °C	116.8 ± 0.3 °C	121 ± 0.3 °C	124.7 ± 0.3 °C	128.8 ± 0.3 °C	131.8 ± 0.3 °C	134.8 ± 0.3 °C	137.5 ± 0.3 °C	140.2 ± 0.3 °C	143 ± 0.3 °C	145.5 ± 0.3 °C	147.7 ± 0.3 °C	149.7 ± 0.3 °C	151.8 ± 0.3 °C	152.7 ± 0.3 °C
CCOC(=O)C(C)CC (configuration not stated) [ethyl 2-methylbutanoate]	89.0 ± 0.2 °C	98.1 ± 0.3 °C	105.2 ± 0.3 °C	111.1 ± 0.3 °C	116.4 ± 0.3 °C	121 ± 0.3 °C	124.8 ± 0.3 °C	128.7 ± 0.3 °C	132.5 ± 0.3 °C	135.6 ± 0.3 °C	138.6 ± 0.3 °C	141.4 ± 0.3 °C	144.2 ± 0.3 °C	147.0 ± 0.3 °C	149.4 ± 0.3 °C	151.7 ± 0.3 °C	154 ± 0.3 °C	156.0 ± 0.3 °C	156.8 ± 0.3 °C
